Measured values: US20040259790A1, “Methods for identifying and administering agents that bias the immune response via dendritic cells” (priority 2003, published 2004)
Entries after “also recorded” stand apart in the source; their conditions may differ. Where two headings read alike, the source gives them in different places.

Columns and labels:
[1] = system: ERK1/2; experiment: IL-12(p70) production by stimulated DCs with ERK1/2 inhibitor; assay type: cell-based, human; details: inhibitor 1 h before stimulus
[2] = system: splenic CD11c+ CD11b+ and CD11c+ CD11b− DC subsets; experiment: Activation of splenic DC subsets in vivo
[3] = system: JNK1/2; experiment: MAP-kinase signaling in DCs: JNK1/2 phosphorylation (western blot); assay type: cell-based, human
[4] = system: human monocyte-derived DCs; experiment: DC phenotype/maturation by flow cytometry (CD80, CD86, CD83); assay type: cell-based; details: immature DCs cultured 48 h with stimulus
Description: Isolation and culture of human monocyte-derived DCs: CD14^+ monocytes were enriched from peripheral blood mononuclear cells (PBMCs), using an enrichment step, and cultured in six well plates (1×10^6 cells/well) for six days with recombinant Human GM-CSF at 100 ng/ml (PeproTech, NJ) and recombinant Human IL-4 at 20 ng/ml (PeproTech, NJ). At day six, the cultures consisted uniformly of CD1a^+CD14^−, HLA-DR^+ CD11c^+ cells, which were negative for CD83, the human DC maturation marker, and expressed intermediate levels of such costimulatory molecules as CD86 (Rissoan et al., Science 283:1183-1186, 1999). On day six, the immature DCs were pulsed with E. coli LPS ([…]), flagellin ([…]), Pam3cys ([…]), or SEA ([…]) for 48 hours.
DC phenotype: The phenotype of DCs was determined by flow cytometry using a Facscalibur (BD Pharmingen, CA). Briefly, gated CD1a^+CD14^−, CD11c^+ HLA-DR^+ DCs were analyzed for the expression of CD80, CD86, CD83 and CD40. All antibodies, including the PE-labeled isotype controls were purchased from BD Pharmingen (La Jolla, Calif.).
Isolation and culture of human monocyte-derived DCs: CD14^+ monocytes were enriched from peripheral blood mononuclear cells, and cultured for 6 days with recombinant human GM-CSF at 100 ng/ml (PeproTech, NJ) plus recombinant human IL-4, at 20 ng/ml (PeproTech). At day 6, the cultures consisted uniformly of CD1a^+ CD14^−, HLA-DR^+ CD11c^+ cells, which were negative for CD83. These immature DCs were pulsed with Ec.LPS (1 μg/ml), flagellin (0.5 μg/ml), Pam3cys (20 μg/ml), or SEA (100 μg/ml) for 48 h.
DC phenotype: This was determined by flow cytometry using a Facscalibur (BD Pharmingen, CA). Briefly, gated CD1a^+CD14^−, C11c+ HLA-DR^+DCs were analyzed for the expression of CD80, CD86, CD83 and CD40 (BD Pharmingen, La Jolla, Calif.).

[5] = system: p38 MAP kinase; experiment: MAP-kinase signaling in DCs: p38 phosphorylation; assay type: cell-based, human
[6] = system: OVA-specific CD4+ T cells; experiment: Antigen-specific CD4+ T cell responses in vivo (OT-2 adoptive transfer); parameters: species or system mice
[7] = system: c-Fos; experiment: Flow cytometric evaluation of c-Fos expression in DCs; assay type: cell-based, human; details: for phosphorylated c-Fos expression in DCs: flow cytometry
[8] = system: ERK1/2; experiment: MAP-kinase signaling in DCs: ERK1/2 phosphorylation; assay type: cell-based, human; details: 0.25, 1 and 4 h stimulation
[9] = system: human monocyte-derived DCs; experiment: Cytokine production by DCs (ELISA); assay type: cell-based
[10] = system: naïve, allogeneic CD4+ CD45RA+ CD45RO− T cells; experiment: DC-T cell cultures: T-cell proliferation and Th1/Th2 cytokines; assay type: cell-based, human; details: for IFNγ in DC-T cell culture: DCs stimulated 48 h, then 5 days with naive CD4+ T cells
[11] = system: OVA-specific CD8+ T cells; experiment: Antigen-specific CD8+ T cell responses in vivo (OT-1 adoptive transfer); parameters: species or system mice; details: for clonal expansion of OVA-specific CD8+ T cells: i.p. with OVA257-264 50 μg, E. coli LPS 25 μg or Pam-3-cys 50 μg, day 4
[12] = mice injected with OVA323-339 + stimulus
[13] = very high doses, which induced high levels of CD83
[14] = mice injected with OVA257-264 + stimulus

**Q.** What does the source list for N#CC(=C(/N)Sc1ccccc1N)/C(C#N)=C(\N)Sc1ccccc1N [U0126]?
**A.** IL-12(p70) production induced by Pam3cys when ERK1/2 is blocked [1]: significantly enhances IL-12(p70) production; IL-12(p70) production induced by SEA when ERK1/2 is blocked [1]: did not result in consistent increases in IL-12(p70)

**Q.** Which results are given for “S-[2,3-bis(palmitoyloxy)-(2-RS)-propyl]-N-palmitoyl-R-Cys-S-Ser-Lys4-OH [Pam3cys]”?
**A.** induction of CD86 and I-Ab on splenic DC subsets ([2]; TLR-2 deficient (TLR2−/−) mice): severely impaired; also recorded: severely reduced; CD86 and MHC class II (I-Ab) expression on splenic DC subsets ([2]; wild type mice, E. coli LPS 25 μg, Pam-3-cys 50 μg, 6 hours): equivalent up-regulation of CD86 and MHC class II; also recorded: upregulated CD86 and I-Ab expression; JNK1 phosphorylation in DCs ([3]; Example 2, FIG. 9c, western blot): very weak; CD80 expression on DCs [4]: also weaker; CD86 expression on DCs [4]: much lower levels of CD86; DC maturation (maturation marker CD83) [4]: weaker than that induced by E. coli LPS or flagellin; also recorded: weaker than that induced by Ec.LPS or flagellin; phosphorylation of p38 MAP kinase in DCs ([5]; 0.25, 1 and 4 h stimulation, phosphorylated to total ratio, ELISA): rapid burst of p38 phosphorylation at 15 minutes, which rapidly declined to near baseline levels by 1 hour; phosphorylation of p38 MAP kinase in DCs ([5]; 0.25, 1 and 4 h stimulation, phosphorylated to total ratio, ELISA, listed as Pam-3-cys): enhanced phosphorylation of p38 MAP kinase; bias of the CD4+ Th response in vivo ([6]; OT-2): preferential bias towards the Th2 pathway; ratio IFNγ: IL-4 ([6]; OT-2, FIG. 12D): 40; ratio IFNγ: IL-5 ([6]; OT-2, FIG. 12D): 18; ratio IFNγ: IL-13 ([6]; OT-2, FIG. 12D): 1.2; IL-4 and IL-5 in restimulated spleen cell culture ([6]; OT-2, relative to OVA323-339+E. coli LPS, p<0.01): relatively higher levels of IL-4 and IL-5; clonal expansion of OVA-specific CD4+ Thy-1.2+ T cells in spleen ([6]; i.p. with OVA323-339 50 μg, E. coli LPS 25 μg or Pam-3-cys 50 μg, day 4): significantly enhanced the clonal expansion; also recorded: induced clonal expansion; IFNγ in restimulated spleen cell culture [6, 12]: much lower levels of IFNγ; IL-5 in restimulated spleen cell culture [6, 12]: ~70 pg/mL; IL-4 in restimulated spleen cell culture ([6]; mice injected with OVA323-339 + stimulus, ELISA sensitivity 8 pg/ml): ~30 pg/mL; in vitro proliferative capacity of OVA-specific CD4+ T cells ([6]; spleen cells restimulated with OVA, versus OVA323-339 alone): greatly enhanced responses; c-Fos expression in DCs at 4 hours ([7]; 4 h of stimulation): maintained, even at 4 hours; also recorded: maintained even at 4 hrs; phosphorylated c-Fos expression in DCs [7]: expressed at significant levels; total c-Fos expression (mean fluorescence intensity, fraction of cells) in DCs ([7]; peak, 2 hrs of stimulation, versus E. coli LPS or flagellin): much greater; ERK1/2 phosphorylation in DCs [8]: much higher magnitude and duration of phosphorylation (which was sustained even at 4 hours); also recorded: much higher magnitude and duration of phosphorylation, (which was sustained even at 4 h); IL-12 induced in DCs at 10 hrs ([9]; 10 hrs, no inhibitor): did not induce any IL-12; IL-12 induced in DCs at 24 hrs ([9]; 24 hrs, no inhibitor): 20 to 100 pg/mL; IL-10 secreted by DCs ([9]; 48 h with stimulus, ELISA): induced; TNF-α secreted by DCs ([9]; 48 h with stimulus, ELISA): much weaker levels; IL-12(p70) secreted by DCs ([9]; 48 h with stimulus, doses giving equivalent IL-6, ELISA): little or no IL-12(p70); IL-12(p70) secreted by DCs at very high doses of stimulus [9, 13]: did not induce IL-12(p70); IL-5 in DC-T cell culture ([10]; Example 1, FIG. 2B): high levels; IL-13 in DC-T cell culture ([10]; Example 1, FIG. 2B): 1458 pg/mL; IFNγ in DC-T cell culture ([10]; Example 1, FIG. 2B): high levels; IL-5 in DC-T cell culture ([10]; Example 2, FIG. 8b): 600 pg/mL; IL-13 in DC-T cell culture ([10]; Example 2, FIG. 8b): 600 pg/mL; IFNγ in DC-T cell culture ([10]; Example 2, FIG. 8b): approximately 2000 pg/ml; Th1 responses induced by DCs stimulated at very high doses [10, 13]: did not induce Th1 responses; bias of the CD8+ Tc response in vivo ([11]; OT-1): shift the balance towards the Tc2 pathway; ratio IFNγ: IL-4 ([11]; OT-1, FIG. 13D): 28; ratio IFNγ: IL-5 ([11]; OT-1, FIG. 13D): 21; ratio IFNγ: IL-13 ([11]; OT-1, FIG. 13D): 4; clonal expansion of OVA-specific CD8+ T cells [11]: induced clonal expansion; clonal expansion of OVA-specific CD8+ T cells ([11]; listed as Pam-cys): enhanced the clonal expansion; IFNγ in restimulated spleen cell culture [11, 14]: lower levels of IFNγ; IL-4, IL-5 and IL-13 in restimulated spleen cell culture [11, 14]: relatively higher levels of IL-4, IL-5 and IL-13; in vitro proliferative capacity of OVA-specific CD8+ T cells ([11]; spleen cells restimulated with OVA257-264, versus OVA257-264 alone): greatly enhanced responses

**Q.** flagellin was tested. Which “JNK1 phosphorylation in DCs” value [3] did it give?
**A.** The value was “high levels”.

**Q.** And the “JNK 2 phosphorylation in DCs” value [3]?
**A.** Its value is “higher levels of JNK 2”.

**Q.** And the “phosphorylation of JNK1 and 2 in DCs” value [3]?
**A.** The value was “higher levels of JNK1 and 2”.

**Q.** And the “phosphorylation of p38 MAP kinase in DCs” value [5]?
**A.** The value was “enhanced phosphorylation of p38 MAP kinase, which peaked at 15 minutes, and was sustained at levels well above baseline, even at 4 hours”.

**Q.** And the “ratio of p38:ERK phosphorylation in DCs” value [5]?
**A.** The value was “much higher ratios of p38:ERK1/2”.

**Q.** And the “phosphorylated c-Fos expression in DCs” value [7]?
**A.** The value was “not expressed”.

**Q.** And the “IL-10 secreted by DCs” value [9]?
**A.** Its value is “induced”.

**Q.** And the “IL-12(p70) secreted by DCs” value [9]?
**A.** Its value is “approximately 1000 pg/ml”.

**Q.** What about the “TNF-α secreted by DCs” value [9] of the same compound?
**A.** The value was “strongly induced”.

**Q.** What about the “type of Th response induced by stimulated DCs” value [10] of the same compound?
**A.** The value was “typical Th1 profile”.
